Source: article PMC12621045, “Development of Purine and Pyrrolopyrimidine Scaffolds as Potent, Selective, and Brain Penetrant NUAK1 Inhibitors” (ACS Medicinal Chemistry Letters, 2025)

How the values were obtained:
[1] = Mouse pharmacokinetic study, 5 mg/kg I.P. cassette; settings: for AUC(0-inf) / half-life: plasma; for half-life: Plasma t1/2, mouse
Procedure: ADMET and PK experimental methods
(§1) Microsomal stability: analysis was performed by Cyprotex Discovery. Briefly, test compounds in
(§2) (0.5 mg protein/mL) in the presence of NADPH (1 mM) at 37 °C. Aliquots were taken at time intervals
(§3) MS/MS conditions for compound remaining, allowing the determination of the half-life for the
(§4) MDR1-MDCK Permeability (bi-directional): was performed by Cyprotex Discovery. Briefly,
(§5) compounds were administered at 10 µM (1% DMSO final) to the apical or basolateral side of a
(§6) confluent monolayer of MDR1- MDCK cells, then incubated at 37 °C for 60 minutes before appearance
(§7) on the opposite side of the monolayer was determined LC-MS/MS. The efflux ratio (ER) is calculated
(§8) from the ratio of B-A to A-B permeabilities.
(§9) Plasma protein binding: was performed by ChemPartner Co. Ltd. Briefly, compounds in DMSO
(§10) (1 µM, 0.2% DMSO final) were added to mouse plasma or brain tissue and dialysed against buffer for
(§11) 5 hrs at 37 °C. The compound concentration in each of the plasma and buffer compartments was
(§12) determined by mass spectrometry and used to calculate the percentage compound bound.
(§13) Pharmacokinetic analysis: was performed by ChemPartner Co. Ltd. Male CD-1 mice (N=3 per
(§14) timepoint) were intraperitoneally dosed at 5 mg/kg, as a cassette of five compounds, formulated in 10%
(§15) DMSO, 10% Solutol HS 15, 80% (50 mM citrate buffer pH3.0) at 0.5 mg/mL. At the designated time
(§16) points a blood sample was collected from the facial vein into K2EDTA tubes, and plasma separated by
(§17) centrifugation. Mice were euthanised by CO2 inhalation and brains were dissected and homogenised.
(§18) Compound levels were quantified by LC-MS/MS and PK parameters estimated by a non-compartmental
model using WinNonlin 8.2.

EF2K = EF2K (Homo sapiens, UniProt O00418); test: 33P-ATP radiometric filter binding kinase panel; settings: read-out: % activity remaining
EPH-B3 = EPH-B3 (Homo sapiens, UniProt P54753); test: 33P-ATP radiometric filter binding kinase panel; settings: read-out: % activity remaining
Source text: (§19) targets in radiometric filter binding assay using 33P-ATP at the MRC PPU International Centre for

ERK8 = ERK8 (Homo sapiens, UniProt Q8TD08); test: 33P-ATP radiometric filter binding kinase panel; settings: read-out: % activity remaining
Source text: as §19

Aurora A = Aurora A (Homo sapiens, UniProt O14965); test: 33P-ATP radiometric filter binding kinase panel; settings: read-out: % activity remaining
STK33 = STK33 (Homo sapiens, UniProt Q9BYT3); test: 33P-ATP radiometric filter binding kinase panel; settings: read-out: % activity remaining
GCK = GCK (Homo sapiens, UniProt Q12851); test: 33P-ATP radiometric filter binding kinase panel; settings: read-out: % activity remaining
Source text: as §19

WNK1 = WNK1 (Homo sapiens, UniProt Q9H4A3); test: 33P-ATP radiometric filter binding kinase panel; settings: read-out: % activity remaining
Source text: as §19

S6K1 = S6K1 (Homo sapiens, UniProt P23443); test: 33P-ATP radiometric filter binding kinase panel; settings: read-out: % activity remaining
Source text: as §19

CSK = CSK (Homo sapiens, UniProt P41240); test: 33P-ATP radiometric filter binding kinase panel; settings: read-out: % activity remaining
Source text: as §19

MARK3 = MARK3 (Homo sapiens, UniProt P27448); test: 33P-ATP radiometric filter binding kinase panel; settings: read-out: % activity remaining
Source text: as §19

MLK3 = MLK3 (Homo sapiens, UniProt Q16584); test: 33P-ATP radiometric filter binding kinase panel; settings: read-out: % activity remaining
CDK6/cyclin D1 = CDK6/cyclin D1 (Homo sapiens, UniProt Q00534); test: Adapta screening assay (Thermo Fisher); settings: read-out: CDK6/D1 % inhibition at 1 μM
Procedure: CDK2/cyclin A: Z′-LYTE™ screening assay performed by Thermo Fisher Scientific: The 2X CDK2/cyclin A / Ser/Thr 12 mixture is prepared in 50 mM HEPES pH 7.5, 0.01% BRIJ-35, 10 mM
2 µM Ser/Thr 12 in 50 mM HEPES pH 7.5, 0.01% BRIJ-35, 10 mM MgCl2, 1 mM EGTA. After the 1
CDK4/cyclin D1: Adapta™ screening assay was performed by Thermo Fisher Scientific. The 2X CDK4/cyclin D1 / Rb Substrate mixture is prepared in 50 mM HEPES pH 7.5, 0.01% BRIJ-35, 10 mM MnCl2, 1 mM EGTA, 2 mM DTT, 0.02% NaN3. The final 10 µL Kinase Reaction consists of 7.5 - 30
0.5 mM EGTA, 1 mM DTT, 0.01% NaN3. After the 1 hour Kinase Reaction incubation, 5 µL of
CDK6/cyclin D1: Adapta™ screening assay was performed by Thermo Fisher Scientific. The 2X CDK6/cyclin D1 / Rb Substrate mixture is prepared in 50 mM HEPES pH 7.5, 0.01% BRIJ-35, 10 mM
MnCl2, 1 mM EGTA, 2 mM DTT, 0.02% NaN3.
All single point assay determinations carried out in duplicate.

TAO1 = TAO1 (Homo sapiens, UniProt Q7L7X3); test: 33P-ATP radiometric filter binding kinase panel; settings: read-out: % activity remaining
MINK1 = MINK1 (Homo sapiens, UniProt Q8N4C8); test: 33P-ATP radiometric filter binding kinase panel; settings: read-out: % activity remaining
Source text: as §19

EPH-A2 = EPH-A2 (Homo sapiens, UniProt P29317); test: 33P-ATP radiometric filter binding kinase panel; settings: read-out: % activity remaining
IR = IR (Homo sapiens, UniProt P06213); test: 33P-ATP radiometric filter binding kinase panel; settings: read-out: % activity remaining
Source text: as §19

MARK4 = target: T1, MARK4 (Homo sapiens, UniProt Q96L34); test: 33P-ATP radiometric filter binding kinase panel; settings: read-out: % activity remaining
T1 sequence (Q96L34 1-752): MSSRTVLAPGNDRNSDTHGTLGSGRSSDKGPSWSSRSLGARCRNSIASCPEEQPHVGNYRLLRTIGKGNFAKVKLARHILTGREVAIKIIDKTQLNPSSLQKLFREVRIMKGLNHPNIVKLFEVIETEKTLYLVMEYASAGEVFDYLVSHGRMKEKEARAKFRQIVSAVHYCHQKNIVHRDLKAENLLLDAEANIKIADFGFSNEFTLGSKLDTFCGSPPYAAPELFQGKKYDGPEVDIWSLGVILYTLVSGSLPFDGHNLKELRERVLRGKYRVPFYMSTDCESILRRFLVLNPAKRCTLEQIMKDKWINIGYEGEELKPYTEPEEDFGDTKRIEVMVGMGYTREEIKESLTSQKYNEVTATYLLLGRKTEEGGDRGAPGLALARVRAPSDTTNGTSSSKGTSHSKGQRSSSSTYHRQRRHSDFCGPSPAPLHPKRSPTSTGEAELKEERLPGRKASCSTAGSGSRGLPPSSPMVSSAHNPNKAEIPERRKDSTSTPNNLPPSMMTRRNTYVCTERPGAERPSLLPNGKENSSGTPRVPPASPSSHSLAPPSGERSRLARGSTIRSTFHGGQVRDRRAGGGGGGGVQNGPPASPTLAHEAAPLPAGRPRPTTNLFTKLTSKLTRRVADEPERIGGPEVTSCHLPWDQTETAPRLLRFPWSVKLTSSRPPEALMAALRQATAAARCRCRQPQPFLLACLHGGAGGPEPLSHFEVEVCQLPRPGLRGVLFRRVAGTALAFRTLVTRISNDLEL
Source text: as §19

SYK = SYK (Homo sapiens, UniProt P43405); test: 33P-ATP radiometric filter binding kinase panel; settings: read-out: % activity remaining
MAP4K3 = MAP4K3 (Homo sapiens, UniProt Q8IVH8); test: 33P-ATP radiometric filter binding kinase panel; settings: read-out: % activity remaining
Source text: as §19

Lck = Lck (Homo sapiens, UniProt P06239); test: 33P-ATP radiometric filter binding kinase panel; settings: read-out: % activity remaining
Source text: as §19

[2] = Plasma protein binding, equilibrium dialysis; settings: mouse
Procedure: ADMET and PK experimental methods
as §1, §2, §3, §4, §5, §6, §7, §8, §9, §10, §11, §12, §13, §14, §15, §16, §17, §18
model using WinNonlin 8.2.

Src = Src (Homo sapiens, UniProt P12931); test: 33P-ATP radiometric filter binding kinase panel; settings: read-out: % activity remaining
p38b MAPK = p38b MAPK (Homo sapiens, UniProt Q15759); test: 33P-ATP radiometric filter binding kinase panel; settings: read-out: % activity remaining
Source text: as §19

JNK3 = JNK3 (Homo sapiens, UniProt P53779); test: 33P-ATP radiometric filter binding kinase panel; settings: read-out: % activity remaining
Source text: as §19

ZAP70 = ZAP70 (Homo sapiens, UniProt P43403); test: 33P-ATP radiometric filter binding kinase panel; settings: read-out: % activity remaining
Source text: as §19

PRK2 = PRK2 (Homo sapiens, UniProt Q16513); test: 33P-ATP radiometric filter binding kinase panel; settings: read-out: % activity remaining

Sequence of EPH-B3 (P54753 34-998): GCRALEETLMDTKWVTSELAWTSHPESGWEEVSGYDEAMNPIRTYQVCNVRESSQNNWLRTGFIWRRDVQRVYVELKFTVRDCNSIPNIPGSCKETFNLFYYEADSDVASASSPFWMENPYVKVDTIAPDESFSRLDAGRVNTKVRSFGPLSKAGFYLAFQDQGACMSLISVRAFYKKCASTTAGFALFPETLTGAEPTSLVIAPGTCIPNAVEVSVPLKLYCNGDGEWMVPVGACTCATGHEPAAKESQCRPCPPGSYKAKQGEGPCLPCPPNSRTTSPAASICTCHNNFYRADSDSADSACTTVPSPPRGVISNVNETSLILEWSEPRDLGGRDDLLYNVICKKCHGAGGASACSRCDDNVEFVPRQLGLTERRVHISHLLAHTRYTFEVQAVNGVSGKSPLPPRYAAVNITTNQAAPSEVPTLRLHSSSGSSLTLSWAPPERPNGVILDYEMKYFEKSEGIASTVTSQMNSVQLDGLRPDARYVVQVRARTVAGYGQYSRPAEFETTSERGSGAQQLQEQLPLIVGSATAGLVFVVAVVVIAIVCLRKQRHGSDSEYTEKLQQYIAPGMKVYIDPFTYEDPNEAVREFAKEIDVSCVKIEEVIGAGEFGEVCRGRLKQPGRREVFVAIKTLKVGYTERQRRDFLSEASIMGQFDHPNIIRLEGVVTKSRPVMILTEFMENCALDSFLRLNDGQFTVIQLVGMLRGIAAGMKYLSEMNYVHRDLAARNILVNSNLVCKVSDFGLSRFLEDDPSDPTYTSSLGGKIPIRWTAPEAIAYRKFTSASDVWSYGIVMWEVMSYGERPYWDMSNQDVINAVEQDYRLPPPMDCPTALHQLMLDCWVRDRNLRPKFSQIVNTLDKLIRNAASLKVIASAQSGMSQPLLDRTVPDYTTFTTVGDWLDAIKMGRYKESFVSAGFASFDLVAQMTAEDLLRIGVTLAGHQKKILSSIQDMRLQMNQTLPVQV
Sequence of MAP4K3 (Q8IVH8 whole entry): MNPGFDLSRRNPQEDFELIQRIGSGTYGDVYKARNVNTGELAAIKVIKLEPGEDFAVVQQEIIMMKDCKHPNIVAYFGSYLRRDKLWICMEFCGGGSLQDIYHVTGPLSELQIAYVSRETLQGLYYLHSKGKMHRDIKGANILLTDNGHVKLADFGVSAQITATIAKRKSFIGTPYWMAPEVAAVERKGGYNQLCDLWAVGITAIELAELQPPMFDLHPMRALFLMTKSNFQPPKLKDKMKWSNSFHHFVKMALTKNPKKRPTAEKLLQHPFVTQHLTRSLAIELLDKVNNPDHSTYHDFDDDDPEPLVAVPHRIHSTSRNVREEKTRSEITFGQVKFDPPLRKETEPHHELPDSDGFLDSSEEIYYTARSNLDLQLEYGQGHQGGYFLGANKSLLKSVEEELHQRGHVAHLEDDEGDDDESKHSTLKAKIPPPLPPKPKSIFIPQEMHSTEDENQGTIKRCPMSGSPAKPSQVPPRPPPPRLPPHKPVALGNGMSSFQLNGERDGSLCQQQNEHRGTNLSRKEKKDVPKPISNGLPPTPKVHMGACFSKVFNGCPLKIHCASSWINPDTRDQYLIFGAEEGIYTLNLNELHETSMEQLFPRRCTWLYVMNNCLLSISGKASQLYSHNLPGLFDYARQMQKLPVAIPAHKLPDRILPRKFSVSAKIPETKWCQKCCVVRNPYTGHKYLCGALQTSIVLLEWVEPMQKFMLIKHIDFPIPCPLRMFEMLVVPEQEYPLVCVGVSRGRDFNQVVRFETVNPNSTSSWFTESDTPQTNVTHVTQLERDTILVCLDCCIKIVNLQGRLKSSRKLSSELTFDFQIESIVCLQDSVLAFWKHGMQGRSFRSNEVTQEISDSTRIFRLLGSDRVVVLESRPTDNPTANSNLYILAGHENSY
Sequence of MLK3 (Q16584 whole entry): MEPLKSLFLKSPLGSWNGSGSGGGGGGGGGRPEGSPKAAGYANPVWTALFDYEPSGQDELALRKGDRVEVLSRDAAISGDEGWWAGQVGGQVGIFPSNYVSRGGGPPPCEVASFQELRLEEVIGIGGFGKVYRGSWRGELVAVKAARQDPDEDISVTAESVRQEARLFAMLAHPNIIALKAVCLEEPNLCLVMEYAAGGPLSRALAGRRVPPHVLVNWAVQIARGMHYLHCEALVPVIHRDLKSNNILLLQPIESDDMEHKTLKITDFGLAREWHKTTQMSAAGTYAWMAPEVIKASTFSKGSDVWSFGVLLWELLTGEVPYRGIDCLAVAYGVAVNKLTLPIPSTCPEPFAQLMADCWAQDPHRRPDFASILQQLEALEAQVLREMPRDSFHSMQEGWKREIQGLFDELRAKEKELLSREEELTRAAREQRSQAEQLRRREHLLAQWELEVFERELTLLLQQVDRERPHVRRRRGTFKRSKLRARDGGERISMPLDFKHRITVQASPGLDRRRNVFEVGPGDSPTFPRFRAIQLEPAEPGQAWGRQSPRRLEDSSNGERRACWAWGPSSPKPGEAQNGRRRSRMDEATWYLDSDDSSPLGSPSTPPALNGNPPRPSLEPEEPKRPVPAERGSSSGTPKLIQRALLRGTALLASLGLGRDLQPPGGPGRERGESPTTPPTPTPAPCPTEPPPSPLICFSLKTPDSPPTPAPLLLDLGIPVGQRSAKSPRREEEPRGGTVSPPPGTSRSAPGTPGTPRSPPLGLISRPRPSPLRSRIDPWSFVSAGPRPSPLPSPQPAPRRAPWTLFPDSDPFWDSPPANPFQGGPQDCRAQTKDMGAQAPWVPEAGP
Sequence of S6K1 (P23443 whole entry): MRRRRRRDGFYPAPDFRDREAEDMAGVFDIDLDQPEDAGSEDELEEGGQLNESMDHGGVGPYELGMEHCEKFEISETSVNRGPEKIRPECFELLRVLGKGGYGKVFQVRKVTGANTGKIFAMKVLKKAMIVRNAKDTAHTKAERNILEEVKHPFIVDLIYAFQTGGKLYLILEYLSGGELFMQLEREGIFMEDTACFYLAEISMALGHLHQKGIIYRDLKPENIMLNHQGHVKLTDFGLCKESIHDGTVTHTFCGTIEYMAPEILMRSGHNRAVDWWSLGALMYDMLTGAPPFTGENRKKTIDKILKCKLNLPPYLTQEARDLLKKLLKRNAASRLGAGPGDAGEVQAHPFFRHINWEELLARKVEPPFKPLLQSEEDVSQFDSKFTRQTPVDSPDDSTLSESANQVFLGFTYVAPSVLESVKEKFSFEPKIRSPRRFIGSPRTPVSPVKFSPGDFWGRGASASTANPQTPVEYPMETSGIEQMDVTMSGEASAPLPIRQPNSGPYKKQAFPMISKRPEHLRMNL
Sequence of ERK8 (Q8TD08 whole entry): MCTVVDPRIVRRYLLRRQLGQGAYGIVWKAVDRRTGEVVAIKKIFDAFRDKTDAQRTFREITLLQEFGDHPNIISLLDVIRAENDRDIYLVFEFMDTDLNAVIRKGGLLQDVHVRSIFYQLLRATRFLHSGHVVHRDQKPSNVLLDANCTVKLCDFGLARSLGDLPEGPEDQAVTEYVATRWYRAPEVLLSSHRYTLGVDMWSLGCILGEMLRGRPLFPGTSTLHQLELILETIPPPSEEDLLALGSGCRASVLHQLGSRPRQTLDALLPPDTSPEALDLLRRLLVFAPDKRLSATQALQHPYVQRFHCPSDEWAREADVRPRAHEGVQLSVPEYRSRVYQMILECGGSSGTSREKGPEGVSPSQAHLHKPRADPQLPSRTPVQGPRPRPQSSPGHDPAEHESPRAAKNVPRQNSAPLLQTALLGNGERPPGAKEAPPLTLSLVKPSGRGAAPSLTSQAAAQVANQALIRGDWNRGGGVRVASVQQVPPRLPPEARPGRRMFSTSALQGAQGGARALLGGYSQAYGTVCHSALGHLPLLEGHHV
Sequence of Lck (P06239 whole entry): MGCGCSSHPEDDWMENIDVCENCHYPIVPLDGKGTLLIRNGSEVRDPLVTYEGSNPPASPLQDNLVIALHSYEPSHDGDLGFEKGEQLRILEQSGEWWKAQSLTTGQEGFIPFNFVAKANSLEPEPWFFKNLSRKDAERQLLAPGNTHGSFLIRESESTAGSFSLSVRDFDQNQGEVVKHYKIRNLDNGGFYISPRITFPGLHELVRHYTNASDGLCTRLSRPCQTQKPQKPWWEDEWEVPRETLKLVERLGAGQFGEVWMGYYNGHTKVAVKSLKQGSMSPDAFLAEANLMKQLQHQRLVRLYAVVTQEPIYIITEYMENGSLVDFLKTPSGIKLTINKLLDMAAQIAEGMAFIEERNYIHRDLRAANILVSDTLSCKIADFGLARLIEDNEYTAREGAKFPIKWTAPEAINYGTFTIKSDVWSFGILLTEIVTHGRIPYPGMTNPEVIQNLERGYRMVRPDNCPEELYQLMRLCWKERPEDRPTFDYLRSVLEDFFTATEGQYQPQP
Sequence of MARK3 (P27448 whole entry): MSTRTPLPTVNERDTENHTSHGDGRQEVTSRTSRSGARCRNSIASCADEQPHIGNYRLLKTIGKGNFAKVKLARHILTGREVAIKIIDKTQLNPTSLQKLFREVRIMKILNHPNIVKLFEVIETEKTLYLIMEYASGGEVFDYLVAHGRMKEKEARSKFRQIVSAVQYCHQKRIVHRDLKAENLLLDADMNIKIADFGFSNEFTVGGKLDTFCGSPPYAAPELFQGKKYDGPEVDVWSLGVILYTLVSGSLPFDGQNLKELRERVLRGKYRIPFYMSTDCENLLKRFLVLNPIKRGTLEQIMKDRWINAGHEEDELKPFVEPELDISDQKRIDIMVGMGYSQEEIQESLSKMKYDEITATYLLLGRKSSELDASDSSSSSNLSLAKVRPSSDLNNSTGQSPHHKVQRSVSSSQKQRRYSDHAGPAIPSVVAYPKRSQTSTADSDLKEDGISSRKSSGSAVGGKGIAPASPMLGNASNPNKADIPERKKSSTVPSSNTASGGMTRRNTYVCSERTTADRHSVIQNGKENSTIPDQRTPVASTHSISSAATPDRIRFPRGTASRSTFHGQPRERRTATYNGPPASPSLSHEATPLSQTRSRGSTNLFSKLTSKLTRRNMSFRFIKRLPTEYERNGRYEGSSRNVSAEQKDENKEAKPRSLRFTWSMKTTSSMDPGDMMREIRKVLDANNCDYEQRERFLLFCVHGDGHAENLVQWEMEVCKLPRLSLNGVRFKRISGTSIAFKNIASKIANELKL

SMILES	Kp at 0.5 h ([1]; male, CD-1, mouse, brain, ip)	Kp at 2 h ([1]; male, CD-1, mouse, brain, ip)	Kp uu at 0.5 h ([1]; male, CD-1, mouse, brain, ip)	Kp uu at 2 h ([1]; male, CD-1, mouse, brain, ip)	AUC(0-inf) ([1]; male, CD-1, mouse, ip)	half-life ([1]; male, CD-1, mouse, ip, I.P.)	remaining activity at 1 µM (EF2K)	remaining activity at 1 µM (EPH-B3)	remaining activity at 1 µM (ERK8)	remaining activity at 1 µM (Aurora A)	remaining activity at 1 µM (STK33)	remaining activity at 1 µM (GCK)	remaining activity at 1 µM (WNK1)	remaining activity at 1 µM (S6K1)	remaining activity at 1 µM (CSK)	remaining activity at 1 µM (MARK3)	remaining activity at 1 µM (MLK3)	inhibition at 1 µM (CDK6/cyclin D1)	remaining activity at 1 µM (TAO1)	remaining activity at 1 µM (MINK1)	also measured
CC(C)N1CCN(c2ccc(Nc3nc(OCC4CCOC(C)(C)C4)c4nc[nH]c4n3)cc2)CC1 (stereo not drawn) [Compound 20]	0.1	0.2	0.02	0.07	1020 ng·h/mL	1.55 h	101%	88%	32%	40%	96%	61%	90%	90%	82%	46%	33%	32%	94%	71%	Plasma t1/2 ([1]; mouse, I.P.): 1.6 h; [Brain] at 30 min ([1]; mouse, I.P., 30 min): 36 ng/mL; [Brain] at 2 h ([1]; mouse, I.P., 2 h): 13 ng/mL; remaining activity at 1 µM (EPH-A2): 88%; remaining activity at 1 µM (IR): 77%; remaining activity at 1 µM (MARK4): 59%; remaining activity at 1 µM (SYK): 59%; remaining activity at 1 µM (MAP4K3): 71%; remaining activity at 1 µM (Lck): 54%; fraction unbound at 5 h, 1 µM [2]: 0.095; remaining activity at 1 µM (Src): 25%; remaining activity at 1 µM (p38b MAPK): 82%; remaining activity at 1 µM (JNK3): 51%; remaining activity at 1 µM (ZAP70): 95%; remaining activity at 1 µM (PRK2): 57%
CC(C)N1CCN(c2ccc(Nc3nc(OCC4CC4)c4cc[nH]c4n3)cc2)CC1 [Compound 23]	7.6	9.4	2.06	2.29	988 ng·h/mL	1.2 h	113%	89%	52%	31%	51%	34%	77%	51%	97%	6%	92%	26%	46%	23%	concentration at 30 min ([1]; male, CD-1, mouse, brain, ip): 3920 ng/mL; concentration at 2 h ([1]; male, CD-1, mouse, brain, ip): 1070 ng/mL; remaining activity at 1 µM (EPH-A2): 87%; remaining activity at 1 µM (IR): 25%; remaining activity at 1 µM (MARK4): 26%; remaining activity at 1 µM (SYK): 9%; remaining activity at 1 µM (MAP4K3): 11%; remaining activity at 1 µM (Lck): 72%; fraction unbound at 5 h, 1 µM [2]: 0.007; remaining activity at 1 µM (Src): 15%; remaining activity at 1 µM (p38b MAPK): 111%; remaining activity at 1 µM (JNK3): 58%; remaining activity at 1 µM (ZAP70): 78%; remaining activity at 1 µM (PRK2): 43%
